Test results: the supplement of paper PMC10307832

Tests used:
Assay in all cases: relative viability (nuclei count vs DMSO), 5 days (fraction); higher = more cells survive
[1] = compound: O=C(CCCCCCC(=O)Nc1ccccc1)NO [Vorinostat] + CC(=O)Nc1cccc(-n2c(=O)n(C3CC3)c(=O)c3c(Nc4ccc(I)cc4F)n(C)c(=O)c(C)c32)c1 [Trametinib] (partner 0.02 µM)
In short: (§1)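 Lung cancer cell lines, seeded in 1536-well plates, were treated the following day by pin tool with a single drug or with five library-drug doses (not always all listed) in √10 steps on top of a fixed anchor-drug dose. Cells were fixed and nuclei stained in one step after 5 days, and nuclei were counted. Relative viability is the nuclei count for treated wells divided by that for vehicle wells, reported as medians of duplicate plates.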

[2] = compound: O=C(CCCCCCC(=O)Nc1ccccc1)NO [Vorinostat] + CS(=O)(=O)N1CCN(Cc2cc3nc(-c4cccc5[nH]ncc45)nc(N4CCOCC4)c3s2)CC1 [Pictilisib] (partner 1 µM)
In short: as §1

[3] = compound: O=C(CCCCCCC(=O)Nc1ccccc1)NO [Vorinostat] + NC(=O)Nc1cc(-c2cccc(F)c2)sc1C(=O)N[C@H]1CCCNC1 [AZD7762] (partner 0.2 µM)
In short: as §1

[4] = compound: O=C(CCCCCCC(=O)Nc1ccccc1)NO [Vorinostat] + Nc1nc2[nH]cc(CCc3ccc(C(=O)N[C@@H](CCC(=O)O)C(=O)O)cc3)c2c(=O)[nH]1 [Pemetrexed] (partner 0.2 µM)
In short: as §1

[5] = compound: O=C(CCCCCCC(=O)Nc1ccccc1)NO [Vorinostat] + Nc1ncn([C@H]2C[C@H](O)[C@@H](CO)O2)c(=O)n1 [Decitabine] (partner 2 µM)
In short: as §1

Cell Line	relative viability ([1]; first compound 0.253 µM)	relative viability ([1]; first compound 0.8 µM)	relative viability ([1]; first compound 2.53 µM)	relative viability ([1]; first compound 8 µM)	relative viability ([2]; first compound 0.253 µM)	relative viability ([2]; first compound 0.8 µM)	relative viability ([2]; first compound 2.53 µM)	relative viability ([2]; first compound 8 µM)	relative viability ([3]; first compound 0.253 µM)	relative viability ([3]; first compound 0.8 µM)	relative viability ([3]; first compound 2.53 µM)	relative viability ([3]; first compound 8 µM)	relative viability ([4]; first compound 0.253 µM)	relative viability ([4]; first compound 0.8 µM)	relative viability ([4]; first compound 2.53 µM)	relative viability ([4]; first compound 8 µM)	relative viability ([5]; first compound 0.253 µM)	relative viability ([5]; first compound 0.8 µM)	relative viability ([5]; first compound 2.53 µM)	relative viability ([5]; first compound 8 µM)
BEN	0.928	0.659	0.367	0.149	0.659	0.332	0.132	0.0393	0.645	0.661	0.439	0.125	0.712	0.572	0.474	0.145	0.838	0.55	0.236	0.143
LCLC-103H	0.804	0.7	0.473	0.337	0.794	0.55	0.306	0.211	0.696	0.672	0.45	0.238	0.471	0.425	0.452	0.32	0.715	0.766	0.329	0.363
NCI-H1793	0.383	0.34	0.3	0.182	0.479	0.355	0.286	0.174	0.188	0.492	0.204	0.131	1.26	0.869	0.654	0.175	0.596	0.504	0.38	0.165
NCI-H650	1.24	0.839	0.243	0.111	0.902	0.491	0.183	0.16	0.606	0.737	0.235	0.165	0.953	0.918	0.287	0.11	0.332	0.312	0.208	0.104
HCC-366	0.412	0.333	0.062	0.0267	0.132	0.191	0.0894	0.037	0.459	0.195	0.0622	0.0231	0.169	0.174	0.0867	0.0396	0.383	0.244	0.0518	0.0306
ChaGo-K-1	0.973	0.792	0.5	0.193	0.832	0.597	0.345	0.246	0.862	0.867	0.567	0.173	0.254	0.26	0.254	0.218	0.508	0.516	0.389	0.202
NCI-H838	0.631	0.481	0.279	0.112	0.798	0.675	0.349	0.142	0.998	1	0.628	0.609	0.258	0.269	0.19	0.167	0.542	0.597	0.325	0.198
HCC-78	0.774	0.495	0.201	0.181	0.25	0.128	0.117	0.134	0.451	0.464	0.223	0.199	0.888	0.852	0.875	0.868	0.672	0.634	0.355	0.236
NCI-H2170	0.926	0.921	0.578	0.108	0.348	0.235	0.209	0.185	1.23	0.923	0.332	0.106	0.249	0.242	0.222	0.114	0.415	0.407	0.321	0.129
NCI-H2085	0.587	0.503	0.285	0.155	0.53	0.462	0.378	0.303	0.962	0.898	0.518	0.207	1.02	0.738	0.45	0.18	0.569	0.554	0.379	0.281
PC-14	0.785	0.483	0.155	0.0461	0.959	0.438	0.0673	0.0418	0.33	0.288	0.106	0.0453	0.162	0.177	0.14	0.0507	0.227	0.19	0.0705	0.06
A-427	0.82	0.718	0.361	0.166	0.65	0.595	0.586	0.153	0.67	0.459	0.239	0.156	1.02	0.925	0.433	0.196	0.551	0.557	0.434	0.166
NCI-H1755	0.791	0.77	0.602	0.219	0.47	0.368	0.173	0.138	0.478	0.402	0.276	0.163	0.458	0.382	0.285	0.177	0.703	0.773	0.44	0.213
NCI-H1666	0.894	0.805	0.561	0.439	0.363	0.283	0.206	0.128	0.778	0.826	0.461	0.322	0.849	0.887	0.651	0.434	0.703	0.654	0.548	0.329
LOU-NH91	0.883	0.857	0.754	0.455	0.556	0.472	0.417	0.32	0.757	0.739	0.548	0.414	0.362	0.324	0.387	0.351	0.845	0.854	0.702	0.45
HARA	1.06	0.576	0.18	0.0921	0.483	0.447	0.132	0.102	0.2	0.245	0.146	0.125	0.239	0.217	0.205	0.125	0.468	0.367	0.194	0.0814
